From patent US20230414715A1, “TRAIL COMPOUNDS FOR REDUCING CANCER TREAMENT SIDE EFFECTS” (BROWN UNIVERSITY, priority 2022, published 2023)

Experiments:
[1] = system: mRNA from mouse lung tissue; assay: NanoString nCounter PanCancer Immune Profiling panel, mRNA from mouse lung tissue; assay type: in vivo
Procedure: (§1) One hour before radiation mice were grouped into control or given 10 mg/kg of TLY012 via IP injection (n=3/gender/treatment). Mice were treated and weighed twice a week up until 11 days post-radiation when all mice were euthanized.
(§2) Rodent sacrifice was performed following anesthetization with 100 mg/kg ketamine and 10 mg/kg xylazine administered intraperitoneally. ˜400-600 μL blood was first collected throughcardiac puncture with a 26G ⅝″ needle through the intercostal space into the left ventricle. […] 1 mL of 2 mg/mL EDTA in PBS was injected through the right ventricle to perfuse the lungs, after which the lungs were excised, washed further in PBS, submerged in RNAlater (Sigma-Aldrich, #R0901, Missouri, USA), and flash frozen in liquid nitrogen.
Frozen lung tissue was stored long-term at −80° C. Thawing was performed over 16 hours at 4° C. Tissue homogenization was performed with Precellys Lysing Kit (Cayman Chemical Company, #16859, Michigan, USA) and a Bulley Blender Homogenizer (Next Advance, #G14-G15) prior to RNA extraction with QlAgen RNeasy kit (Qiagen, #74104, Hilden, Germany) and cleaned up with QIAgen RNeasy MinElute Cleanup kit (Qiagen, #74204, Hilden, Germany). Quality and concentration were verified by Nanodrop. Extracted RNA samples were gene expression profiled by NanoString nCounter PanCancer Immune Profiling Panel (NanoString Technologies, #XTCSO-MIP1-12, Seattle, WA) according to the manufacturer's instructions.
Nanostring data was analyzed in nSolver Advanced Analysis Software and ROSALIND. Raw data was uploaded to nSolver for automated normalization, background subtraction, and quality control (QC) check. All samples passed QC. Control mice and mice treated with TLY012 lung samples were used to construct two groups to which an unpaired t-test was run to generate the data in the volcano plot that was created in ROSALIND (FIG. 5). Differential expression was determined with p-values and Benjamini-Yekutieli adjusted p-values. Pathway scores are generated in nSolver as a summarization of expression level changes of biologically related groups of genes. Pathway scores are derived from the first Principal Components Analysis (PCA) scores (1st eigenvectors) for each sample based on the individual gene expression levels for all the measured genes within a specific pathway. The cell type score itself is calculated as the mean of the log2 expression levels for all the probes included in the final calculation for that specific cell type.

serum cytokines = assay: Serum cytokine analysis in the NanoString cohort; assay type: in vivo, mouse
Procedure: All mouse serum samples were analyzed by a custom R&D systems Murine Premixed Multi- Analyte Kit (R&D Systems, Inc., Minneapolis, MN). The panel was run on a Luminex 200 Instrument (Luminex Corporation, Austin, TX) according to the manufacturer's instructions. Murine serum levels of Angiopoietin-2, BAFF/BLyS/TNFSF13B, CCL2/JE/MCP-1, CCL3/MIP-1 alpha, CCL4/MIP-1 beta, CCL5/RANTES, CCL7/MCP-3/MARC, CCL11/Eotaxin, CCL12/MCP-5, CCL20/MIP-3 alpha, CCL21/6Ckine, CCL22/MDC, Chitinase 3-like 1, CXCL1/GRO alpha/KC/CINC-1, CXCL10/IP-10/CRG-2, CXCL12/S DF- 1 alpha, Dkk-1, FGF basic/FGF2/bFGF, GDF-15, GM-CSF, Granzyme B, IFN-gamma, IGF-I/IGF-1, IL-1 alpha/IL-1F1, IL-1 beta/IL-1F2, IL-2, IL-3, IL-4, IL-6, IL-7, IL-10, IL-13, IL-16, IL-17/IL-17A, IL-27, IL-33 M-CSF, MMP-3, MMP-8, MMP-12, Prolactin, TWEAK/TNFSF12, VEGF, and VEGFR2/KDR/Flk-1 were measured. Analyte values were reported in picograms per milliliter (pg/mL). […] Latent TGF-β was activated in samples using 1 N HCl and samples were neutralized with 1.2 N NaOH/0.5 M HEPES. Samples were assayed immediately after neutralization.
as §1, §2

[2] = all mice, treated versus control
[3] = lung, 20 Gy, relative to control
[4] = NanoString cohort, FIG. 5C, relative to untreated control

Which results are given for “TLY012: N-terminal PEGylated recombinant human TRAIL; PEGylated trimeric TRAIL formulation”?
genes with statistically significant differential expression ([1]; TRAIL-/- mice, 20 Gy, treated versus control): 16; “Antigen Processing” pathway score [1, 2]: significant increases; “Interferon” pathway score [1, 2]: significant increases; “Antigen Processing” pathway score ([1]; female cohort): significant increases; “Basic Cell Functions” pathway score ([1]; female cohort): decrease; “Dendritic Cell Functions” pathway score ([1]; female cohort): significant increases; “MHC” pathway score ([1]; female cohort): significant increases; BCL6 mRNA [1, 3]: downregulated; CCL6 mRNA [1, 3]: upregulated; DOCKS mRNA [1, 3]: downregulated; FOXJ1 mRNA [1, 3]: downregulated; H2-Q2 mRNA [1, 3]: downregulated; HERC6 mRNA [1, 3]: upregulated; IKZF2 mRNA [1, 3]: downregulated; IL1RL2 mRNA [1, 3]: upregulated; KLRA7 mRNA [1, 3]: upregulated; MAPK8 mRNA [1, 3]: downregulated; PTGS2 mRNA [1, 3]: downregulated; RAET1A mRNA [1, 3]: downregulated; RELB mRNA [1, 3]: upregulated; RRAD mRNA [1, 3]: downregulated; TMEM173 mRNA [1, 3]: upregulated; TNFSF10 mRNA [1, 3]: upregulated; CCL3/MIP-lalpha serum level (serum cytokines; [4]): decrease; GDF-15 serum level (serum cytokines; [4]): decrease; IL-1beta serum level (serum cytokines; [4]): increase; fold-change in the cytokine levels of inflammatory markers in serum (serum cytokines; serum taken 3 days after last administration): no statistically significant fold-change
